Experimental data from the NIST ThermoML archive (doi:10.1021/je0341256).
“And” between values parts separate entries of the source, which are not always exact repeats. Equal values may be shown once. Numbers after ± are expanded uncertainties.

Conditions: Liquid, Closed cell (Static) method

SMILES | vapor or sublimation pressure (332.06 K) [kPa] | vapor or sublimation pressure (332.08 K) | further results
CCC(C)O (centres undefined) [butan-2-ol] | – | 17.27 ± 0.4 kPa | –
CC(C)O [propan-2-ol] | – | – | vapor or sublimation pressure (332.03 K): 36.47 ± 0.42 kPa
C/C=C/C [(E)-2-butene] | 605.74 ± 2.1 | 606.44 ± 2.1 kPa and 606.14 ± 2.1 kPa | vapor or sublimation pressure (332.04 K): 605.54 ± 2.1 kPa; vapor or sublimation pressure (332.07 K): 606.94 ± 2.1 kPa

Second part, led by results:

vapor or sublimation pressure (332.06 K) [kPa] | vapor or sublimation pressure (332.08 K) | SMILES | further results
44.67 ± 0.43 | – | CCO [ethanol] | –
36.97 ± 0.42 | – | CC(C)(C)O [2-methylpropan-2-ol] | –
– | 80.97 ± 0.48 kPa | CO [methanol] | –
